Measurements from patent publication US10555961B2 (INDIANA UNIVERSITY RESEARCH AND TECHNOLOGY CORPORATION, priority 2015, dated 2020).

How the values were obtained:
Format in all cases: cell-based
[1] = system: variant of Klebsiella pneumonia that exhibits multi-drug resistance; settings: multi-drug resistant Klebsiella pneumonia, FIG. 2
Protocol: (§1) Bacterial assays were performed using native gentamicin and the C-1, C-1a, C-2, and C-2a congeners of gentamicin.

Klebsiella pneumonia = assay: Bacterial assay, kill zones and growth inhibition zones; settings: FIG. 2
Protocol: as §1

Bacillus subtilis = assay: as above; settings: FIG. 2
Protocol: as §1

UGAC stop codon = assay: Stop codon readthrough (FIG. 7); settings: 200 μg mL^−1 for 24 hours, relative to controls
Protocol: Native gentamicin and various congeners prepared as in Example 1 were tested to determine their effect on stop codon readthrough.
In order to determine the optimal concentrations of the aminoglycosides (tobramycin, amikacin, and gentamicin) to use in the mammalian translation system, increasing amounts of each aminoglycoside were added to a rabbit reticulocyte translation system while expressing the QX(N) (UGAC) construct. The effect of aminoglycosides on total protein synthesis was monitored by comparing the total amount of proteins synthesized in the presence and absence of various aminoglycosides. A range of aminoglycoside concentrations was then determined that allowed a maximal amount of termination suppression without inhibiting total protein synthesis more than two- to threefold. In vitro translation reactions were carried out using the TNT coupled transcription/translation system (Promega, Madison, Wis.). […] The gel was dried and subjected to Phosphorlmager analysis in order to quantitate the amount of truncated and full-length protein species. The percentage of readthrough was then calculated as the amount of full-length protein/(truncated+full-length species)×100%.

Substance | anti-bacterial activity (kill zones and growth inhibition zones) [1] | anti-bacterial activity (kill zones and growth inhibition zones) (Klebsiella pneumonia) | anti-bacterial activity (kill zones and growth inhibition zones) (Bacillus subtilis) | readthrough of the stop codon UGAC (UGAC stop codon)
C-1 gentamicin | demonstrated anti-bacterial activity | demonstrated anti-bacterial activity | demonstrated anti-bacterial activity | greater readthrough relative to controls
C-2a gentamicin | demonstrated anti-bacterial activity | demonstrated anti-bacterial activity | demonstrated anti-bacterial activity | 
C-2 gentamicin | demonstrated anti-bacterial activity | demonstrated anti-bacterial activity | demonstrated anti-bacterial activity | greater readthrough relative to controls
C-1a gentamicin | demonstrated anti-bacterial activity | demonstrated anti-bacterial activity | demonstrated anti-bacterial activity | 
